From PubChem BioAssay AID1963832 (Molecular Pharmacology Branch, DTP, NCI, 2024)
pIC50: −log10 of the molar value.

Tested on: 885724-159-R-J1-PDC complex spheroid viability
Assay: Anticancer human tumor 885724-159-R-J1-PDC patient-derived pancreatic adenocarcinoma cell line growth inhibition [POLQ]
Conditions: for pIC50: curve of first compound; for viability, T/C: stronger effect = lower value; active = viability on the fitted dose curve at most 10% of control; inactive = the rest
Outline: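 PDC + HUVEC + MSC complex spheroids; POLQ inhibitors ± partner drugs; top conc. at/near clinical Cmax, else 10 microM (SN-38 1 microM), half-log dilutions; 37 degrees C, 5% CO2.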

[1] = second compound 0.0316 µM, first compound 0.0316 µM
[2] = second compound 0.0316 µM, first compound 0.1 µM
[3] = second compound 0.0316 µM, first compound 0.316 µM
[4] = second compound 0.0316 µM, first compound 1 µM
[5] = second compound 0.0316 µM, first compound 3.16 µM
[6] = second compound 0.0316 µM, first compound 10 µM
[7] = second compound 0.1 µM, first compound 0.0316 µM
[8] = second compound 0.1 µM, first compound 0.1 µM
[9] = second compound 0.1 µM, first compound 0.316 µM
[10] = second compound 0.1 µM, first compound 1 µM
[11] = second compound 0.1 µM, first compound 3.16 µM
[12] = second compound 0.1 µM, first compound 10 µM
[13] = second compound 0.316 µM, first compound 0.0316 µM
[14] = second compound 0.316 µM, first compound 0.1 µM
[15] = second compound 0.316 µM, first compound 0.316 µM
[16] = second compound 0.316 µM, first compound 1 µM
[17] = second compound 0.316 µM, first compound 3.16 µM
[18] = second compound 0.316 µM, first compound 10 µM
[19] = second compound 1 µM, first compound 0.0316 µM
[20] = second compound 1 µM, first compound 0.1 µM
[21] = second compound 1 µM, first compound 0.316 µM
[22] = second compound 1 µM, first compound 1 µM
[23] = second compound 1 µM, first compound 3.16 µM
[24] = second compound 1 µM, first compound 10 µM
[25] = second compound 3.16 µM, first compound 0.0316 µM
[26] = second compound 3.16 µM, first compound 0.1 µM
[27] = second compound 3.16 µM, first compound 0.316 µM
[28] = second compound 3.16 µM, first compound 1 µM
[29] = second compound 3.16 µM, first compound 3.16 µM
[30] = second compound 3.16 µM, first compound 10 µM
[31] = second compound 10 µM, first compound 0.0316 µM
[32] = second compound 10 µM, first compound 0.1 µM
[33] = second compound 10 µM, first compound 0.316 µM
[34] = second compound 10 µM, first compound 1 µM
[35] = second compound 10 µM, first compound 3.16 µM
[36] = second compound 10 µM, first compound 10 µM
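Note: spheroids exposed to compounds for 7 days.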

COc1cc(C2c3cc4c(cc3C(OC3OC5COC(C)OC5C(O)C3O)C3COC(=O)C23)OCO4)cc(OC)c1O (stereo unspecified) + Nc1ccc(C#CCN(C(=O)Cc2ncc(C(F)(F)F)cc2C(F)(F)F)c2ccc(F)cc2)nn1
inactive: viability, T/C [1] 107% | viability, T/C [2] 86.6% | viability, T/C [3] 87.4% | viability, T/C [4] 71% | viability, T/C [5] 57.8% | viability, T/C [6] 55% | viability, T/C [7] 104% | viability, T/C [8] 89.4% | viability, T/C [9] 82.2% | viability, T/C [10] 69.4% | viability, T/C [11] 61.1% | viability, T/C [12] 53.2% | viability, T/C [13] 103% | viability, T/C [14] 87.2% | viability, T/C [15] 76.1% | viability, T/C [16] 66.3% | viability, T/C [17] 58.2% | viability, T/C [18] 50.6% | viability, T/C [19] 89.7% | viability, T/C [20] 85.7% | viability, T/C [21] 76.9% | viability, T/C [22] 69.6% | viability, T/C [23] 53.9% | viability, T/C [24] 53.5% | viability, T/C [25] 87.8% | viability, T/C [26] 87.9% | viability, T/C [27] 82.6% | viability, T/C [28] 81% | viability, T/C [29] 56.1% | viability, T/C [30] 50.9% | viability, T/C [31] 95.1% | viability, T/C [32] 94.3% | viability, T/C [33] 82.4% | viability, T/C [34] 74.1% | viability, T/C [35] 62.8% | viability, T/C [36] 52.4%
< 5.00: pIC50 (second compound 0.0316 µM) | pIC50 (second compound 0.1 µM) | pIC50 (second compound 0.316 µM) | pIC50 (second compound 1 µM) | pIC50 (second compound 3.16 µM) | pIC50 (second compound 10 µM)

COc1cccc2c1C(=O)c1c(O)c3c(c(O)c1C2=O)CC(O)(C(=O)CO)CC3OC1CC(N)C(O)C(C)O1 (stereo unspecified) + Nc1ccc(C#CCN(C(=O)Cc2ncc(C(F)(F)F)cc2C(F)(F)F)c2ccc(F)cc2)nn1
active: viability, T/C [5] 5.73% | viability, T/C [6] 6.16% | viability, T/C [11] 6.2% | viability, T/C [12] 6.34% | viability, T/C [17] 5.39% | viability, T/C [18] 7.18% | viability, T/C [23] 6.54% | viability, T/C [24] 7.34% | viability, T/C [29] 5.75% | viability, T/C [30] 7.58% | viability, T/C [35] 5.42% | viability, T/C [36] 5.67%
6.77: pIC50 (second compound 10 µM)
6.70: pIC50 (second compound 0.1 µM)
6.80: pIC50 (second compound 0.0316 µM)
inactive: viability, T/C [1] 66.2% | viability, T/C [2] 61% | viability, T/C [3] 34% | viability, T/C [4] 13.8% | viability, T/C [7] 75.9% | viability, T/C [8] 64.5% | viability, T/C [9] 40.4% | viability, T/C [10] 12.2% | viability, T/C [13] 72.5% | viability, T/C [14] 55.7% | viability, T/C [15] 37.7% | viability, T/C [16] 14.6% | viability, T/C [19] 76.7% | viability, T/C [20] 60.8% | viability, T/C [21] 38.1% | viability, T/C [22] 10.1% | viability, T/C [25] 74.9% | viability, T/C [26] 60.6% | viability, T/C [27] 35.2% | viability, T/C [28] 12.9% | viability, T/C [31] 70.8% | viability, T/C [32] 61.1% | viability, T/C [33] 36.1% | viability, T/C [34] 11.3%
6.82: pIC50 (second compound 0.316 µM)
6.79: pIC50 (second compound 3.16 µM)
6.76: pIC50 (second compound 1 µM)

O=c1[nH]cc(F)c(=O)[nH]1 + Nc1ccc(C#CCN(C(=O)Cc2ncc(C(F)(F)F)cc2C(F)(F)F)c2ccc(F)cc2)nn1
inactive: viability, T/C [1] 88.7% | viability, T/C [2] 99.5% | viability, T/C [3] 93.2% | viability, T/C [4] 101% | viability, T/C [5] 100% | viability, T/C [6] 75.2% | viability, T/C [7] 94% | viability, T/C [8] 100% | viability, T/C [9] 92.1% | viability, T/C [10] 96% | viability, T/C [11] 87% | viability, T/C [12] 74.9% | viability, T/C [13] 100% | viability, T/C [14] 98.2% | viability, T/C [15] 92.2% | viability, T/C [16] 90.9% | viability, T/C [17] 89.4% | viability, T/C [18] 82.7% | viability, T/C [19] 96.9% | viability, T/C [20] 88.8% | viability, T/C [21] 96% | viability, T/C [22] 93.2% | viability, T/C [23] 81.3% | viability, T/C [24] 71.7% | viability, T/C [25] 97.1% | viability, T/C [26] 86.4% | viability, T/C [27] 86.9% | viability, T/C [28] 92.8% | viability, T/C [29] 97.5% | viability, T/C [30] 71.6% | viability, T/C [31] 105% | viability, T/C [32] 109% | viability, T/C [33] 94% | viability, T/C [34] 86.5% | viability, T/C [35] 92.8% | viability, T/C [36] 81.9%
< 5.00: pIC50 (second compound 0.0316 µM) | pIC50 (second compound 0.1 µM) | pIC50 (second compound 0.316 µM) | pIC50 (second compound 1 µM) | pIC50 (second compound 3.16 µM) | pIC50 (second compound 10 µM)
